Data as given in patent US12576044B2, “Treatment of Alzheimer's disease” (priority 2015, dated 2026).
Read-outs that look alike come from different tables or passages of the source.

Columns and labels:
[1] = test system: superactivated platelets (SAPs); test: In vitro synergy analysis: SAP formation with and without R, Q, C combinations, flow cytometry, Combination Index (Chou-Talalay); format: cell-based, human
Method: The “effective amount” or “therapeutically effective amount” also may be determined by using methods known in the art such as the in vitro flow cytometry assay to evaluate the effectiveness of multiple RQC combinations on platelet activation. All possible combinations of pre-defined “low”, “medium”, and “high” doses of R, Q, and C, respectively, are tested to determine the optimal dose combination. […] A venipuncture sample of 10 mL of blood is obtained from each patient. Of the 10 mL, a 3 mL aliquot of blood is added to a tube containing 0.5 mL of acid-citrate-dextrose solution (38 mM citric acid, 75 mM sodium citrate, 135 mM glucose) to prevent clotting. […] The PRP is transferred to a new tube, leaving about 0.5 mL above the buffy coat layer. […] Platelets are then treated with biotinylated fibrinogen and stained with the following fluorophores: APC-streptavidin (APC-SA), FITC-PAC1, and PE-anti-CD41. PE-anti-CD41 recognizes the platelet-specific, transmembrane protein CD41. FITC-PAC1 identifies activated platelets by recognizing […] which increases its expression at the surface upon activation. APC-SA recognizes superactivated platelets that more readily bind the biotinylated fibrinogen to their surface. Each sample is analyzed by a Beckman Coulter CyAn flow cytometer (Beckman Coulter, Fullerton, CA). Results are analyzed by the Summit program (Beckman Coulter). […] Thus, abnormally high SAP levels are indicative of microvascular disease. […] To evaluate synergistic drug effects, the Combination Index (CI) theorem derived by Chou-Talalay was calculated for each combination product of R, Q, and C. The CI is useful in quantifying levels of synergism and antagonism. The theorem is based on the median-effect equation to provide a common link between a single entity and multiple entities. […] Baseline differences in untreated SAP levels can be adjusted for by evaluating the proportion of total platelets that are sensitive or resistant to treatment (Table 16). This technique adjusts for overall differences in SAP levels between various disease types. […] In AD subjects (n=9), the total number of platelets sensitive to RQC was higher than in healthy controls (n=20). […] The number of sensitive platelets was higher in AD subjects with higher SAP levels while the number of resistant platelets remained largely equivalent.

[2] = biological target: beta-amyloid (1-42) oligomers (Homo sapiens, UniProt P05067); test: Thioflavin-T (ThT) assay, de-aggregation of pre-aggregated beta-amyloid; format: biochemical; details: for reduced aggregation of pre-aggregated beta-amyloid (1-42): over 8 days, 37° C.; for de-aggregation activity (words): 0.1, 1.0, 10 μM, 2 hours, 3 days, 8 days
Chain of beta-amyloid (1-42) oligomers (P05067 672-713 limits assumed): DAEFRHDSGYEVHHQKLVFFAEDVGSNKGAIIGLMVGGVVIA
Text: (§1) (A) De-aggregation activity of curcumin (C). […] (B) Aggregate-prevention activity of resveratrol (R), quercetin (Q), and curcumin (C).
(§2) The formation of beta-amyloid plaques in the brain is a major hallmark of Alzheimer's disease and is widely considered to be a key initial step in the disease progression. The aim of clinical trials for Alzheimer's disease has historically been to deaggregate or prevent the aggregation of beta-amyloid. Plaques are formed by aggregation of soluble monomeric beta-amyloid into insoluble oligomers, protofibrils, fibrils, and plaques. […] The most common method to evaluate beta-amyloid aggregation is the thioflavin-T (ThT) assay. ThT is a fluorescent probe that binds to beta-amyloid fibrils with specificity and is measurable at 482 nm when excited at 450 nm.
(§3) Curcumin (C) was evaluated at 0.1, 1.0, and 10 μM.

[3] = biological target: T1, monomeric beta-amyloid 1-42 (Homo sapiens, UniProt P05067); test: Thioflavin-T (ThT) assay, aggregate-prevention activity; format: biochemical; details: for aggregate-prevention activity: curcumin 0.1, 1.0 or 10 μM, resveratrol 10 μM, quercetin 10 μM, 60 minutes; for aggregate-prevention compared with positive control phenol red (PhR): curcumin at 1 μM, resveratrol at 10 μM
T1 construct: 5 ng monomeric beta-amyloid (1-42) (Anaspec, Fremont, CA); purchased Anaspec, Fremont, CA
T1 sequence (P05067 672-713 limits assumed): as above
Text: as §1, §2, §3

beta-amyloid fibrils = details: cited from earlier work
beta-amyloid oligomers = details: cited from earlier work
[4] = test system: superactivated platelets (SAPs); test: SAP inhibition by combinatorial drug treatment (flow cytometry of platelet rich plasma activated with thrombin and convulxin); format: cell-based, human; details: 10 μM, 30 minutes at 37° C., normalized relative to Control
Method: A venipuncture sample of 10 mL of blood is obtained from each patient. Of the 10 mL, a 3 mL aliquot of blood is added to a tube containing 0.5 mL of acid-citrate-dextrose solution (38 mM citric acid, 75 mM sodium citrate, 135 mM glucose) to prevent clotting. […] After centrifuging at 1100 rpm for 10 minutes at room temperature, platelet rich plasma (PRP), which is the upper layer, is removed. The PRP is transferred to a new tube, leaving about 0.5 mL above the buffy coat layer. The PRP-containing tube is incubated with 10 μL of thrombin and convulxin, two agonists that activate the platelets, for five minutes. Platelets are then treated with biotinylated fibrinogen and stained with the following fluorophores: APC-streptavidin (APC-SA), FITC-PAC1, and PE-anti-CD41. PE-anti-CD41 recognizes the platelet-specific, transmembrane protein CD41. FITC-PAC1 identifies activated platelets by recognizing […] which increases its expression at the surface upon activation. APC-SA recognizes superactivated platelets that more readily bind the biotinylated fibrinogen to their surface.
All fluorophores are excited at 488 nm by argon laser of the flow cytometer. Their emission spectra are well separated, thereby allowing simultaneous, multi-color immunofluorescence measurements.
Each sample is analyzed by a Beckman Coulter CyAn flow cytometer (Beckman Coulter, Fullerton, CA). Results are analyzed by the Summit program (Beckman Coulter). Data analysis is conducted for SAPs after flow cytometry using the Summit program to determine the relative percentages of each of these groups per sample. The SAPs are expressed as a percentage of the total number of events in the sample.
Isolation and flow cytometry of SAPs was performed according to the procedure described in Example 1, above.
Aliquots of platelet rich plasma (PRP) were incubated with aqueous saline solutions of resveratrol only, quercetin only, […], and with an admixture of resveratrol, quercetin and curcumin for a time period of 30 minutes at 37° C. Thereafter the obtained PRP samples were irradiated by an argon laser at […]. Multi-color immunofluorescence was noted, and analyzed as described in Example 1, above.

COc1cc(/C=C/C(=O)CC(=O)/C=C/c2ccc(O)c(OC)c2)ccc1O [Curcumin, (1E,6E)-1,7-bis(4-Hydroxy-3-methoxyphenyl)-1,6-heptadiene-3,5-dione]
% Change ([1]; C 0.01 μM, AD patient): −11% | SAP % ([1]; C 0.01 μM, AD patient): 32.5% | % Change ([1]; C 0.1 μM, AD patient): −18% | SAP % ([1]; C 0.1 μM, AD patient): 30.0% | % Change ([1]; C 1 μM, AD patient): −37% | SAP % ([1]; C 1 μM, AD patient): 23.2% | % Change ([1]; control subject, C 0.01 μM): −2% | SAP % ([1]; control subject, C 0.01 μM): 36.6% | % Change ([1]; control subject, C 0.1 μM): −7% | SAP % ([1]; control subject, C 0.1 μM): 34.6% | % Change ([1]; control subject, C 1 μM): −12% | SAP % ([1]; control subject, C 1 μM): 32.9% | reduced aggregation of pre-aggregated beta-amyloid (1-42) ([2]; 0.1 μM): about 18.6% | reduced aggregation of pre-aggregated beta-amyloid (1-42) ([2]; 1.0 μM): ~51.8% | reduced aggregation of pre-aggregated beta-amyloid (1-42) ([2]; 10 μM): ~64.7% | de-aggregation activity (words) [2]: de-aggregated beta-amyloid oligomers in a dose-dependent manner at all time points | de-aggregation activity (words) ([2]; listed as curcumin): dose-dependently de-aggregated existing beta-amyloid oligomers | aggregate-prevention activity [3]: inhibited the formation of new beta-amyloid aggregates | aggregate-prevention compared with positive control phenol red (PhR) [3]: approximately as effective as the positive control phenol red | IC50 (beta-amyloid fibrils): 1000 nM | IC50 (beta-amyloid oligomers): 800 nM

O=c1c(O)c(-c2ccc(O)c(O)c2)oc2cc(O)cc(O)c12 [Quercetin, 3,3′,4′5,7-pentahydroxy-2-phenylchromen-4-one]
Half-life (in vivo; cited from earlier work): 3 to 17 h | Bioavailability (oral, estimation; cited from earlier work): 0.2-0.3% | Bioavailability (oral; estimation; cited from earlier work): 0.2-0.3% | % Change ([1]; Q 1 μM, AD patient): −7% | SAP % ([1]; Q 1 μM, AD patient): 34.3% | % Change ([1]; Q 5 μM, AD patient): −27% | SAP % ([1]; Q 5 μM, AD patient): 26.7% | % Change ([1]; Q 10 μM, AD patient): −44% | SAP % ([1]; Q 10 μM, AD patient): 20.6% | % Change ([1]; control subject, Q 1 μM): −8% | SAP % ([1]; control subject, Q 1 μM): 34.2% | % Change ([1]; control subject, Q 5 μM): −13% | SAP % ([1]; control subject, Q 5 μM): 32.5% | % Change ([1]; control subject, Q 10 μM): −23% | SAP % ([1]; control subject, Q 10 μM): 28.6% | % Reduction in SAPs [4]: 77.8% | % SAPs [4]: 22.2% | aggregate-prevention activity [3]: inhibited the formation of new beta-amyloid aggregates

Oc1ccc(/C=C/c2cc(O)cc(O)c2)cc1 [Resveratrol, 3,5,4′-trihydroxy-trans-stilbene]
% Change ([1]; R 1 μM, AD patient): −9% | SAP % ([1]; R 1 μM, AD patient): 33.6% | % Change ([1]; R 5 μM, AD patient): −17% | SAP % ([1]; R 5 μM, AD patient): 30.5% | % Change ([1]; R 10 μM, AD patient): −19% | SAP % ([1]; R 10 μM, AD patient): 29.9% | % Change ([1]; control subject, R 1 μM): −9% | SAP % ([1]; control subject, R 1 μM): 33.9% | % Change ([1]; control subject, R 5 μM): −24% | SAP % ([1]; control subject, R 5 μM): 28.2% | % Change ([1]; control subject, R 10 μM): −29% | SAP % ([1]; control subject, R 10 μM): 26.3% | % Reduction in SAPs [4]: 46.6% | % SAPs [4]: 53.4% | aggregate-prevention activity [3]: inhibited the formation of new beta-amyloid aggregates | aggregate-prevention compared with positive control phenol red (PhR) [3]: approximately as effective as the positive control phenol red
